pIC50: −log10 of the molar value. Read-outs that look alike come from different tables or passages of the source.
Key:
[1] = molecular target: T1, nicotinic acetylcholine receptor (Rattus norvegicus, UniProt P09483+P12390); assay: ^3 H-Nicotine binding/displacement, rat cerebral membranes
T1 construct: the brains removed and the cerebral cortex dissected on ice; from tissue; host or cells: cerebral cortex synaptic membranes of male Sprague-Dawley rats
Procedure: ^3 H-Nicotine binding to rat cerebral membranes was performed according to modifications of the method of Flyn and Mash (J. Neurochem. 47:1948 (1986)). ^3 H-Nicotine (80 ci/mmol; New England Nuclear Corporation, Boston, Mass.) was used as the ligand for nicotinic acetylcholine receptor binding assays. All other reagents were purchased from the Sigma Chemical Co. (St. Louis, Mo.).
Male Sprague-Dawley rats (250-400 gm) were sacrificed by decapitation, the brains removed and the cerebral cortex dissected on ice. Synaptic membranes were prepared by homogenizing the cortical tissue in 20 volumes of ice-cold modified Tris buffer (50 mM Tris pH 7.4, 120 mM NaCl, 5 mM KCl, 2 mM EDTA, 1 mM PMSF) with a polytron (20 sec at setting 5-6) followed by centrifugation (15 min at 5,000×g) at 4° C. The resultant pellet was rehomogenized and centrifuged twice. The final pellet was resuspended in ice-cold assay buffer (50 mM Tris pH 7.4, 120 mM NaCl, 5 mM KCl, 2 mM CaCl2, 1 mM MgCl2) at a concentration of membrane equivalent to 1 gm wet weight cortex per 10 ml buffer. After protein determination the final membrane preparation was diluted with buffer to 3 mg protein/mi. This membrane preparation was used in either the fresh state or frozen (-70° C.) then thawed.
The binding assay is performed manually using 96-well plates, or using a Biomek automated work station (Beckman Instrument Co.). ^3 H-Nicotine was diluted in assay buffer to give a final concentration of 1.9 nM. The Biomek automated work station was programmed to automatically transfer 750 μl of assay buffer with ^3 H-nicotine, 230 μl of membrane preparation and 20 μl of solution containing the compound of interest in assay buffer, DMSO, ethanol:DMSO (1:1) or appropriate vehicle to the 96-well plate. Atropine was added to the incubation buffer at a final concentration of 3 μM to block binding to muscarinic acetylcholine receptor sites. The plates were maintained on ice for 60 min and the tissue-bound radioactivity was separated from the free by rapid filtration in a Brandel Harvester onto GF/C filters presoaked in 0.5% polyethyleneimine for at least 2 hr. The filters were washed with 4×2 ml of ice-cold assay buffer and filters were transferred to vials to which 4 ml of scintillation cocktail was added. The radioactivity was measured in a LS-6500 Beckman Liquid Scintillation Counter in an autodpm mode. Data were analyzed bylog-logit transformation or non-linear regression analysis (e.g., employing GraphPad Prism, available from GraphPad Software, San Diego, Calif.) to give IC50 values. Non-specific binding was defined by 10 μM cytisine.

[2] = system: ^3 H-Dopamine release, rat striatal slices; assay: Ligand-stimulated ^3 H-dopamine release from rat striatal slices; format: cell-based; details: in vitro slices, 300 μM
[3] = ^3 H-nicotine 1.9 nM, rat cerebral membranes, read-out: IC50, Nicotine

T1 sequence (P09483 31-630): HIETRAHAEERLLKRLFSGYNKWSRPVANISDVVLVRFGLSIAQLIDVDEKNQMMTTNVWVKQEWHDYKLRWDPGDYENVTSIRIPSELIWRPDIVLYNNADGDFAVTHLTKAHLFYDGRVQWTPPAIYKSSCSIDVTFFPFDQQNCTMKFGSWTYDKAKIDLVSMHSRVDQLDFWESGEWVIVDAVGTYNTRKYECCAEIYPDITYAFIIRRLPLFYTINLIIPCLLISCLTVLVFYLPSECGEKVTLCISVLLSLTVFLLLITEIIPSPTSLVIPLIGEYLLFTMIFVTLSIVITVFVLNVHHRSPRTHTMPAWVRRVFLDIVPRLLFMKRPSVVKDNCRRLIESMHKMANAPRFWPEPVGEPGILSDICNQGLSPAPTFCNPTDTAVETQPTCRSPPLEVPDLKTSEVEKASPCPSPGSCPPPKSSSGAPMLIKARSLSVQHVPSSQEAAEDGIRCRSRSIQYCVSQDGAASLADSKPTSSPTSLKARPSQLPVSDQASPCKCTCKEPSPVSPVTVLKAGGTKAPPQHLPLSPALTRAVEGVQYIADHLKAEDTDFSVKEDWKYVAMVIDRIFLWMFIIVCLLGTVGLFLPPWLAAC
T1 sequence (P12390 25-500): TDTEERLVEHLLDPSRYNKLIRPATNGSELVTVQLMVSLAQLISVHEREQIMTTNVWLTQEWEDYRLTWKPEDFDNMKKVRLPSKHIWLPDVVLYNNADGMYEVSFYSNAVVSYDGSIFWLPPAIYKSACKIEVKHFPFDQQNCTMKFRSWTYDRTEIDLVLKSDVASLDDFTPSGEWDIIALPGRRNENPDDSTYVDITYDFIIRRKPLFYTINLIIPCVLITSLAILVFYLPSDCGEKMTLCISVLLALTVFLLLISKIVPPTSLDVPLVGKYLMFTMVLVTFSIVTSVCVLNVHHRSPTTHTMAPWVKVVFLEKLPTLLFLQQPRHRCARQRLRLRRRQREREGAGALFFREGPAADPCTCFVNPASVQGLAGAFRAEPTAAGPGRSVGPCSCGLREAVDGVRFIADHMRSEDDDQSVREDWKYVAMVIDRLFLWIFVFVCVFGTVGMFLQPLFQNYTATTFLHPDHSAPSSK

C#Cc1cncc(C2CCCN2C)c1.O=C(O)/C=C/C(=O)O (racemic) [R^5 = ethynyl (racemic), 5-Ethynyl-3-(1-methyl-2-pyrrolidinyl)pyridine fumarate]
pIC50 ([1]; IC50, Nicotine): 8.34
percent fractional release, ^3 H-Dopamine, Striatum [2]: 2.56%

CN1CCCC1c1cncc(-c2ccc(O)c(Cl)c2)c1.O=C(O)/C=C/C(=O)O (centres unmarked) [R^5 = 3-chloro-4-hydroxyphenyl, 5-(4-hydroxy-3-chlorophenyl)-3-(1-methyl-2-pyrrolidinyl)pyridine fumarate]
pIC50 [1, 3]: 7.55
percent fractional release, ^3 H-Dopamine, Striatum [2]: 8.34%

CN1CCCC1c1cncc(-c2cccc(Cl)c2)c1.O=C(O)/C=C/C(=O)O (centres unmarked) [R^5 = 3-chlorophenyl, 5-(3-Chlorophenyl)-3-(1-methyl-2-pyrrolidinyl) pyridine fumarate]
pIC50 [1, 3]: 6.92
percent fractional release, ^3 H-Dopamine, Striatum [2]: 2.0%

COc1ccc(-c2cncc(C3CCCN3C)c2)cc1F.O=C(O)/C=C/C(=O)O (centres unmarked) [R^5 = 3-fluoro-4-methoxyphenyl, 5-(3-Fluoro-4-methoxyphenyl)-3-(1-methyl-2-pyrrolidinyl)pyridine fumarate]
pIC50 [1, 3]: 7.57
percent fractional release, ^3 H-Dopamine, Striatum [2]: 3.1%

Reference: patent US5677459A, “Methods for the preparation of modulators of acetylcholine receptors” (Sibia Neurosciences, Inc., priority 1995, dated 1997)
